Experimental data reported in patent publication EP1769677B1, “METHOD OF IDENTIFYING THERAPEUTIC COMPOUNDS WHICH CAN BE USED FOR THE TREATMENT AND/OR PREVENTION OF INFECTIONS AND DISEASES CAUSED BY HUMAN HERPESVIRUSES” (Universidad Aut Noma de Madrid, priority 2004, dated 2005).

How the values were obtained:
human herpesviruses = test: Survival with acyclovir given ad libitum in the drink (vertical transmission model); format: in vivo, mice; conditions: acyclovir ad libitum in drinking water, high dose (as printed, final daily dose 1.50 mg), from the day of the vaginal plug
Description: Assuming that a mouse drinks about 3 ml a day, 2 working dilutions ([…] so that the final daily dose was 0.75 mg, and […] so that the final daily dose was 1.50 mg) were used.

[1] = test system: herpes simplex virus type 1 (HSV-1) of the KOS strain; test: Neonate mortality after acyclovir treatment of HSV-1 infected mothers (vertical mother-progeny transmission model); format: in vivo, mice; conditions: neonates of HSV-1 infected mothers, 0.25 mg per dose three times a day, from five days before crossbreeding until birth
Description: (§1) All the animals included in the experimental process were 14-week old female mice of the C57Bl/6 lineage. Between two and three adult mice were used per analysis group and between 13 and 25 neonates, depending on the availability of animals. The experiments were performed strictly following the Guidance on the Operation of Animals (Scientific Procedures, Act 1986), supervised by personnel of the Animal house of the Centro de Biologia Molecular Severo Ochoa. All the animals went through a quarantine period and were treated with strict precautions against contamination during inoculation and dissection. The animals were intraperitoneally infected with a dose 10^6 pfu of herpes simplex virus type 1 (HSV-1) of the KOS strain (provided by el Dr. L. Carrasco, Centro de Biologia Molecular Severo Ochoa, Universidad Autónoma of Madrid). […] The first group of mice was not given any treatment. […] Therefore the antiviral concentration administered per dose and mouse was 0.25 mg (10 mg/kg per mouse, far from the toxicity limit of 80 mg/kg cited above), with a total daily dose of 0.75 mg/day.
After birth and sacrifice, the progeny survival rates and the mother and neonate viral loads were analyzed. The adult animals remained asymptomatic during the entire experimental process, suffering no mortality.

[2] = test system: herpes simplex virus type 1 (HSV-1) of the KOS strain; test: Viral load in organs of mothers and progeny by quantitative PCR after acyclovir treatment of infected mothers; format: in vivo, mice
Description: as §1, with “The experiments were performed strictly following the Guidance on the Operation of Animals (Scientific Procedures, Act 1986), supervised by personnel of the Animal house of the Centro de Biologia Molecular Severo Ochoa.” left out
The dissected organs in the adult animals were the following: blood, ovaries, adrenal gland, spinal cord, brain, cerebellum and trigeminal ganglia. The entire brain was separated into three rough regions: midbrain, ventricles and cerebral cortex. In the neonates, the dissected organs were blood, spinal cord and encephalon. DNA was extracted using conventional methods (NucleoSpin®, Cat. K3053-2, ClonTech, USA). The viral load of the different organs was analyzed by means of quantitative PCR. […] Primers specific for the sequence of the viral polymerase (pol) gene were used to detect the virus (SEQ. ID. NO: 3 and SEQ. ID. NO: 4) (120 bp amplicon). The PCR conditions were one cycle of 95°C for 10 minutes, followed by 45 cycles at 95°C for 30 seconds, 55°C (for β-actin) or 60°C (for viral polymerase) for 30 seconds, and a last cycle of 72°C for 40 seconds. The virus concentration range used for optimizing the quantitative PCR standard curve was expressed as plaque forming units (pfu). For calibrating the β-actin gene, nanograms were used as the unit of this endogenous gene. The identity of the amplified products was checked by analysis of the denaturation curves, by gel electrophoresis and restriction analysis.

[3] = in vivo; cited from earlier work
[4] = oral acyclovir, daily dose 0.75 mg

**Q.** With `Nc1nc2c(ncn2COCCO)c(=O)[nH]1` [acyclovir] as the compound, how does the “survival of the animals” value (human herpesviruses) read?
**A.** Its value is “higher”.

**Q.** And the mortality ([1]; oral acyclovir to mothers, none of the 17 animals)?
**A.** The mortality was “no mortality was observed”.

**Q.** What about the mortality rate ([1]; subcutaneous acyclovir to mothers, 1 out of 25) of the same compound?
**A.** Its mortality rate is 4.0%.

**Q.** And the “viral loads both in the mothers and in the progeny” value ([2]; acyclovir daily dose of 0.75 mg, both administration routes (oral and subcutaneous), Figure 7)?
**A.** Its value is “significant reduction”.

**Q.** And the “viral levels in all the analyzed organs of the descendants” value ([2]; oral acyclovir to the mothers, daily dose 0.75 mg, blood, spinal cord, encephalon)?
**A.** Its value is “almost complete elimination”.

**Q.** What about the “virus levels in blood of the mothers” value [2, 4] of the same compound?
**A.** The value was “virtually undetectable”.

**Q.** And the “virus levels in the trigeminal ganglia of the mothers” value [2, 4]?
**A.** Its value is “virtually undetectable”.

**Q.** And the “levels of the virus in the progeny's CNS” value ([2]; subcutaneous acyclovir to mothers, daily dose 0.75 mg, Figure 7B)?
**A.** Its value is “considerably lower levels of the virus”.

**Q.** What about the “levels of the virus in all the analyzed organs of the mother” value ([2]; subcutaneous acyclovir, daily dose 0.75 mg, Figure 7A) of the same compound?
**A.** The value was “considerably lower levels of the virus”.

**Q.** And the toxicity limit [3]?
**A.** The toxicity limit was 80 mg/kg.
